Results published in patent US20150105252A1, “SUBSTITUTED PYRAZOLES AS HERBICIDES” (E I DU PONT DE NEMOURS AND COMPANY, priority 2013, published 2015).

Assays:
Details in all cases: scale 0 to 100
bluegrass = assay: Test D preemergence; format: in vivo, Poa annua
Text: (§1) Seeds of plant species selected from bluegrass (annual bluegrass, Poa annua), blackgrass (Alopecurus myosuroides), canarygrass (littleseed canarygrass, Phalaris minor), chickweed (common chickweed, Stellaria media), galium (catchweed bedstraw, Galium aparine), bromegrass, downy (downy bromegrass, Bromus tectorum), field poppy (Papaver rhoeas), field violet (Viola arvensis), foxtail, green (green foxtail, Setaria viridis), deadnettle (henbit deadnettle, Lamium amplexicaule), ryegrass, Italian (Italian ryegrass, Lolium multiflorum), kochia (Kochia scoparia), lambsquarters (Chenopodium album), oilseed rape (Brassica napus), pigweed (redroot pigweed, Amaranthus retroflexus), chamomile (scentless chamomile, Matricaria inodora), speedwell (bird's-eye speedwell, Veronica persica), barley, spring (spring barley, Hordeum vulgare), wheat, spring (spring wheat, Triticum aestivum), buckwheat, wild (wild buckwheat, Polygonum convolvulus), mustard, wild (wild mustard, Sinapis arvensis), oat, wild (wild oat, Avena fatua), radish, wild (wild radish, Raphanus raphanistrum), windgrass (Apera spica-venti), Russian thistle (Salsola kali), barley, winter (winter barley, Hordeum vulgare), and wheat, winter (winter wheat, Triticum aestivum) were planted into a silt loam soil and treated preemergence with test chemicals formulated in a non-phytotoxic solvent mixture which included a surfactant.
(§2) At the same time, these species were planted in pots containing Redi-Earth® planting medium (Scotts Company, 14111 Scottslawn Road, Marysville, Ohio 43041) comprising spaghnum peat moss, vermiculite, wetting agent and starter nutrients and treated with postemergence applications of the test chemicals formulated in the same manner. Plants ranged in height from 2 to 18 cm (1- to 4-leaf stage). Treated plants and controls were maintained in a controlled growth environment for 14 to 21 days after which time all species were compared to controls and visually evaluated. Plant response ratings, summarized in Table D, are based on a scale of 0 to 100 where 0 is no effect and 100 is complete control. A dash (-) response means no test result.

kochia [1] = assay: Test D preemergence; format: in vivo, Kochia scoparia
Text: as §1, §2

speedwell = assay: Test D preemergence; format: in vivo, Veronica persica
Text: as §1, §2

wheat, spring = assay: Test D preemergence; format: in vivo, Triticum aestivum
Text: as §1, §2

wheat, winter = assay: Test D preemergence; format: in vivo, Triticum aestivum
Text: as §1, §2

blackgrass = assay: Test D postemergence; format: in vivo, Alopecurus myosuroides
Text: as §1, §2

foxtail, green = assay: Test D postemergence; format: in vivo, Setaria viridis
Text: as §1, §2

kochia [2] = assay: Test D postemergence; format: in vivo, Kochia scoparia
Text: as §1, §2

radish, wild = assay: Test D postemergence; format: in vivo, Raphanus raphanistrum
Text: as §1, §2

windgrass = assay: Test D postemergence; format: in vivo, Apera spica-venti
Text: as §1, §2

SMILES | Plant response rating, Bluegrass (bluegrass; 31 g ai/ha) | Plant response rating, Bluegrass (bluegrass; 62 g ai/ha) | Plant response rating, Bluegrass (bluegrass; 125 g ai/ha) | Plant response rating, Bluegrass (bluegrass; 250 g ai/ha) | Plant response rating, Kochia (kochia [1]; 62 g ai/ha) | Plant response rating, Kochia (kochia [1]; 125 g ai/ha) | Plant response rating, Kochia (kochia [1]; 250 g ai/ha) | Plant response rating, Speedwell (speedwell; 62 g ai/ha) | Plant response rating, Speedwell (speedwell; 125 g ai/ha) | Plant response rating, Speedwell (speedwell; 250 g ai/ha) | Plant response rating, Wheat, Spring (wheat, spring; 62 g ai/ha) | Plant response rating, Wheat, Spring (wheat, spring; 125 g ai/ha) | Plant response rating, Wheat, Spring (wheat, spring; 250 g ai/ha) | Plant response rating, Wheat, Winter (wheat, winter; 62 g ai/ha) | Plant response rating, Wheat, Winter (wheat, winter; 125 g ai/ha) | Plant response rating, Wheat, Winter (wheat, winter; 250 g ai/ha) | Blackgrass plant response rating (blackgrass; Postemergence, 31 g ai/ha) | Blackgrass plant response rating (blackgrass; Postemergence, 125 g ai/ha) | Blackgrass plant response rating (blackgrass; Postemergence, 250 g ai/ha) | Blackgrass plant response rating (blackgrass; postemergence, 62 g ai/ha) | also measured
CCc1cc(C(=O)NC(C)C)nn1Cc1ccnc(C(F)(F)F)c1 [Compound 103] | 10 | 35 | 65 | 85 | 65 | 85 | 100 | 100 | 100 | 100 | 10 | 25 | 85 | 10 | 65 | 70 | 5 | 20 | 35 | 10 | Plant response rating, Kochia (kochia [1]; 31 g ai/ha): 10; Plant response rating, Speedwell (speedwell; 31 g ai/ha): 70; Plant response rating, Wheat, Spring (wheat, spring; 31 g ai/ha): 0; Plant response rating, Wheat, Winter (wheat, winter; 31 g ai/ha): 0; Foxtail, Green plant response rating (foxtail, green; Postemergence, 31 g ai/ha): 30; Foxtail, Green plant response rating (foxtail, green; Postemergence, 125 g ai/ha): 35; Foxtail, Green plant response rating (foxtail, green; Postemergence, 250 g ai/ha): 65; Foxtail, Green plant response rating (foxtail, green; postemergence, 62 g ai/ha): 20; Kochia plant response rating (kochia [2]; Postemergence, 31 g ai/ha): 60; Kochia plant response rating (kochia [2]; Postemergence, 125 g ai/ha): 75; Kochia plant response rating (kochia [2]; Postemergence, 250 g ai/ha): 75; Kochia plant response rating (kochia [2]; postemergence, 62 g ai/ha): 65; Radish, Wild plant response rating (radish, wild; Postemergence, 31 g ai/ha): 25; Radish, Wild plant response rating (radish, wild; Postemergence, 125 g ai/ha): 50; Radish, Wild plant response rating (radish, wild; Postemergence, 250 g ai/ha): 60; Radish, Wild plant response rating (radish, wild; postemergence, 62 g ai/ha): 35; Windgrass plant response rating (windgrass; Postemergence, 31 g ai/ha): 10; Windgrass plant response rating (windgrass; Postemergence, 125 g ai/ha): 25; Windgrass plant response rating (windgrass; Postemergence, 250 g ai/ha): 35; Windgrass plant response rating (windgrass; postemergence, 62 g ai/ha): 20
CCCc1cc(C(=O)NCC(F)(F)F)nn1Cc1cc(C(F)(F)F)nn1C [Compound 138] | 20 | 55 | 90 | 100 | 95 | 100 | 100 | 100 | 100 | 100 | 10 | 35 | 50 | 30 | 40 | 60 | 25 | 40 | 75 | 25 | Foxtail, Green plant response rating (foxtail, green; Postemergence, 31 g ai/ha): 15; Foxtail, Green plant response rating (foxtail, green; Postemergence, 125 g ai/ha): 65; Foxtail, Green plant response rating (foxtail, green; Postemergence, 250 g ai/ha): 80; Foxtail, Green plant response rating (foxtail, green; postemergence, 62 g ai/ha): 15; Kochia plant response rating (kochia [2]; Postemergence, 31 g ai/ha): 75; Kochia plant response rating (kochia [2]; Postemergence, 125 g ai/ha): 80; Kochia plant response rating (kochia [2]; Postemergence, 250 g ai/ha): 80; Kochia plant response rating (kochia [2]; postemergence, 62 g ai/ha): 75; Radish, Wild plant response rating (radish, wild; Postemergence, 31 g ai/ha): 80; Radish, Wild plant response rating (radish, wild; Postemergence, 125 g ai/ha): 100; Radish, Wild plant response rating (radish, wild; Postemergence, 250 g ai/ha): 95; Radish, Wild plant response rating (radish, wild; postemergence, 62 g ai/ha): 80; Windgrass plant response rating (windgrass; Postemergence, 31 g ai/ha): 20; Windgrass plant response rating (windgrass; Postemergence, 125 g ai/ha): 35; Windgrass plant response rating (windgrass; Postemergence, 250 g ai/ha): 60; Windgrass plant response rating (windgrass; postemergence, 62 g ai/ha): 20
CCOc1cc(C(=O)NC2CC2)nn1Cc1ccnc(C(F)(F)F)c1 [Compound 189] | 15 | 50 | 70 | 85 | 100 | 100 | 100 | 100 | 100 | 100 | 10 | 40 | 80 | 15 | 65 | 85 | 10 | 15 | 20 | 10 | Foxtail, Green plant response rating (foxtail, green; Postemergence, 31 g ai/ha): 20; Foxtail, Green plant response rating (foxtail, green; Postemergence, 125 g ai/ha): 15; Foxtail, Green plant response rating (foxtail, green; Postemergence, 250 g ai/ha): 50; Foxtail, Green plant response rating (foxtail, green; postemergence, 62 g ai/ha): 20; Kochia plant response rating (kochia [2]; Postemergence, 31 g ai/ha): 75; Kochia plant response rating (kochia [2]; Postemergence, 125 g ai/ha): 80; Kochia plant response rating (kochia [2]; Postemergence, 250 g ai/ha): 85; Kochia plant response rating (kochia [2]; postemergence, 62 g ai/ha): 75; Radish, Wild plant response rating (radish, wild; Postemergence, 31 g ai/ha): 60; Radish, Wild plant response rating (radish, wild; Postemergence, 125 g ai/ha): 65; Radish, Wild plant response rating (radish, wild; Postemergence, 250 g ai/ha): 85; Radish, Wild plant response rating (radish, wild; postemergence, 62 g ai/ha): 60; Windgrass plant response rating (windgrass; Postemergence, 31 g ai/ha): 15; Windgrass plant response rating (windgrass; Postemergence, 125 g ai/ha): 20; Windgrass plant response rating (windgrass; Postemergence, 250 g ai/ha): 35; Windgrass plant response rating (windgrass; postemergence, 62 g ai/ha): 15
